Data set [1] has as its system erythrocyte (heat-induced hemolysis). As to the kind of experiment: erythrocyte membrane stabilization assay (heat-induced erythrocyte hemolysis). It is filed as cell-based. The gist of the method:
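In vitro anti-inflammatory screen measuring stabilization of erythrocytes against heat-induced hemolysis, using 40% or 20% RBC suspensions. Compounds dissolved in physiologic saline or suspended in 2% ethanol in saline, pH adjusted to 7.4.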

Data set [2] is described as follows: G.C. analysis of CBC in the hemolysis test solution. It counts as physicochemical. Here is the method: It was apparent that not all the CBC actually went into suspension. In order to determine if some of the CBC adhered to the wall of the glassware a 10 ml aliquot of the 2×10^-4 (solution a) of CBC saturated with NaCl was extracted with CHCl3 and analyzed by G.C. […] The flask was rinshed with ethanol and the washings analyzed by G.C. and found to contain 1.355 mg of CBC. The remaining 1.475 mg (50%) of CBC that could not be accounted for by G.C. analysis may have been lost during the extraction procedure or while adjusting the pH of the test solution. If the 1.475 mg CBC which could not be accounted for was actually in suspension then the maximum final concentration of CBC used in the highest CBC test level would be […] or one half the amount listed in Table 6. […] The actual activity of CBC may have been 3 to 30 times more protective of red cell membranes than an equivalent amount of PBZ.

For a further data set, the system named is Escherichia coli. Kind of data set: agar well diffusion assay, E. coli. It counts as cell-based. The conditions noted are these: from edge of agar well. As for the experimental part:
Both qualitative and quantitative screens were performed. Qualitative screening was accomplished using the agar well diffusion assay technque while quantitative screening was accomplished by the two-fold (broth) serial dilution method to determine the minimum inhibitory concentration (MIC). Innoculation was accomplished with one loop-full of a 1:10 dilution of the 24-hour-old broth culture, (fungal cultures and M.smegmatis more often required 48 to 72 hours of incubation) of the test organisms in sterile water. Streptomycin sulfate was used as a positive control for antibacterial activity while amphitericin B was used as an antifungal positive control. Organisms utilized in the screens included gram-positive, gram-negative, and acid-fast bacteria as well as different types of fungi. […] An intermediate type activity is seen where R is hydrogen. However, where R is lengthened up to C15 a decrease in activity was noted. Total saturation of the two double bonds in the compounds having a methyl side chain lead, in most cases, to an increase in both antifungal and antibacterial activity.
For orientation: A growth-free zone around the sample is the usual read-out of agar diffusion tests.

The source of these data is US4837228A, “Antiinflammatory and antimicrobial compounds and compositions” (The University of Mississippi, priority 1982, dated 1989).

Like-named read-outs stand apart in the source and are kept apart here.

In the case of `CCCCCc1cc(O)c2c(c1)OC(C)(CCC=C(C)C)C=C2` (stereo not shown) [CBC (I), 2-methyl-2(4'methyl-pent-3'-enyl)-5-hydroxy-7-pentyl chromene], in data set [1] (Erythrocyte, Table 8, 1.25 × 10^-5 M), testing at 12.5 µM gave an inhibition of 55%. The inhibition – broadly, the share of the control response that was lost under treatment – at 25 µM in data set [1] (Erythrocyte, Table 8, 2.5 × 10^-5 M, read-out: inhibition of heat-induced erythrocyte hemolysis) was determined as 67%. In data set [1] (Erythrocyte, Table 8, 5 × 10^-5 M), this compound came in with an inhibition at 50 µM of 79%. Moreover, the inhibition at 100 µM worked out at 40% in data set [1] (Erythrocyte, Table 9 Test 2 (40% RBC), 1.0 × 10^-4 M, read-out: percent inhibition of heat-induced erythrocyte hemolysis); 98% in data set [1] (Erythrocyte, read-out: inhibition of heat-induced erythrocyte hemolysis, Table 8, 1 × 10^-4 M); 37% in data set [1] (Erythrocyte, read-out: percent inhibition of heat-induced erythrocyte hemolysis, Table 9 Test 3 (20% RBC), 1.0 × 10^-4 M); 35% in data set [1] (Erythrocyte, 10^-4 M, read-out: inhibition of heat-induced red cell hemolysis). In addition, the inhibition at 20 µM worked out at 26% in data set [1] (Erythrocyte, Table 9 Test 2 (40% RBC), 2.0 × 10^-5 M, read-out: percent inhibition of heat-induced erythrocyte hemolysis); 26% in data set [1] (Erythrocyte, Table 9 Test 3 (20% RBC), 2.0 × 10^-5 M, read-out: percent inhibition of heat-induced erythrocyte hemolysis); 26% in data set [1] (Erythrocyte, 2×10^-5 M, read-out: inhibition of heat-induced red cell hemolysis). The inhibition at 2 µM in data set [1] (Erythrocyte, Table 9 Test 3 (20% RBC), 2.0 × 10^-6 M, read-out: percent inhibition of heat-induced erythrocyte hemolysis) worked out at 7%. Moreover, the “percent inhibition of heat-induced erythrocyte hemolysis” value in data set [1] (Table 9 Test 3 (20% RBC), 1.0 × 10^-4 M, 100 µM, listed as Cannabichromene) came to 33%. In data set [1] (actual activity, may have been), the “times more protective of red cell membranes than an equivalent amount of PBZ” value is 3 to 30 times. Besides, the “amount of original CBC found in solution” value in data set [2] (10 ml aliquot, G.C.) is given as 0.3 mg. The “amount of CBC found in ethanol washings of the flask” value in data set [2] (G.C.) was determined as 1.355 mg. Also, the “maximum final concentration of CBC in the highest CBC test level” value in data set [2] (if unaccounted CBC was in suspension) turned out to be 50 µM. For the same compound, the “concentration of CBC found in test solution a” value in data set [2] (nominal 2×10^-4, saturated with NaCl, extracted with CHCl3, G.C.) came out at 20 µM. In addition, the “width of inhibition zone” value with Escherichia coli (24 hr) and in the data set on Escherichia coli (48 hr) was 5. mm each time.
